According to article PMC8620715, “Biological Activity of Triazolopyrimidine Copper(II) Complexes Modulated by an Auxiliary N-N-Chelating Heterocycle Ligands” (Molecules, 2021):

Legend:
B16 cells [1] = experiment: Lactate dehydrogenase (LDH) release assay, B16 cells; type: cell-based, mouse
Experimental: Membrane integrity after peptide treatment was assessed based on LDH release using a CytoTox 96 Non-Radioactive Cytotoxicity Assay (Promega), as previously described. […] Maximal LDH release was obtained by complete cell lysis induced by using 1% of Triton X-100. The absorption resulting from LDH activity was measured in a microplate reader Mithras 940 (Berthold) at 490 nm, and the % LDH was calculated as: [(corrected absorbance of the LDH released in treated cells)/(corrected absorbance of the total LDH released)] * 100%.

E. coli 25922 = experiment: MIC by broth microdilution; type: cell-based, Escherichia coli; conditions: E. coli 25922, planktonic
Experimental: (§1) The antibacterial assays were carried out using two Gram-negative (Escherichia coli ATCC 25922, Pseudomonas aeruginosa ATCC 27853) and two Gram-positive (Staphylococcus aureus ATCC 25923, MRSA (meticillin-Resistant S. aureus) 388 (ATCC, American Type Culture Collection) bacteria.
(§2) The antimicrobial activity of the two complexes (1) and (2) was assessed using their minimum inhibitory concentration (MIC) by the broth microdilution method, as previously described by the Clinical and Laboratory Standard Institute (CLSI; M07-A9 document). A broth microdilution assay was performed in sterile 96-well plates using Muller-Hinton broth (Scharlau; MHB). The compounds solubilized in […] (1,000 μg/mL) were serially diluted in 90 μL MHB, in concentrations ranging between 500 and 0.97 μg/mL. Overnight cultures were used to prepare suspension in phosphate-buffered saline (pH 7.0) to match a 0.5 McFarland density. The bacterial suspensions were further diluted to 1:100 by adding 0.1 mL of bacterial suspension to 9.9 mL of MHB. A volume of 10 μL of this dilution was added to each well of columns 1–10, containing different concentrations of the tested compounds. […] Additionally, 10 μL of the diluted bacterial suspension was added in column 11 (the growth control). A volume of 100 μL MHB was added to the microtiter plates’ sterility control wells (column 12). After inoculation, the plates were incubated at 35 ± 2 °C for 18 h. Growth was measured as light absorbance (620 nm) in comparison to an uninoculated well (negative control). It was detected using a microtiter plate reader (Apollo LB 911ELISA (Berthold Technologies GmbH & Co. KG, Waltham, MA, USA)). The MIC of each compound was defined as the lowest concentration required to inhibit bacterial growth.

P. aeruginosa 27853 = experiment: MIC by broth microdilution; type: cell-based, Pseudomonas aeruginosa; conditions: P. aeruginosa 27853, planktonic
Experimental: as §1, §2

MRSA 388 = experiment: MIC by broth microdilution; type: cell-based, Staphylococcus aureus; conditions: MRSA 388, planktonic
Experimental: as §1, §2

S. aureus 25923 = experiment: MIC by broth microdilution; type: cell-based, Staphylococcus aureus; conditions: S. aureus 25923, planktonic
Experimental: as §1, §2

BJ cells = experiment: Cell morphology by fluorescence microscopy (phalloidin staining), BJ cells; type: cell-based, human; conditions: 24 h
Experimental: (§3) The morphological changes induced by the treatment of the BJ and B16 cell lines with the tested compounds at two different concentrations (2.5 and 10 µg/mL) applied for 24 h were investigated by fluorescence microscopy.
(§4) According to the manufacturer protocol, the cytoskeleton actin filaments of BJ and B16 cells were stained with phalloidin-FITC (Sigma-Aldrich, St. Louis, MO, USA). Briefly, cells were washed with PBS (5 min, 3 times), fixed for 5 min with 3% paraformaldehyde, washed three times with PBS, permeabilized with 0.1% Triton X-100 in PBS for 15 min, washed three times with PBS, stained with 20 μg/mL phalloidin-FITC at room temperature for 1 h and rewashed three times with PBS. The cell nucleus was stained with 8 μM of Hoechst 33342 solution for 10 min, washed three times with PBS, and finally, mounted and sealed on glass slides with FluorSave™ Reagent (Merck Millipore, Germany). The fluorescence images were acquired using an Andor DSD2 Confocal Unit (Andor, Ireland), mounted on an epifluorescence microscope, Olympus BX-51 (Olympus, Germany), equipped with a 40x and 100x objective and an appropriate DAPI/Hoechst filter cube (excitation filter 390/40 […], dichroic mirror 405 nm and emission filter 452/45 nm) and GFP/FITC filter cube (excitation filter 466/40 nm, dichroic mirror 488 nm and emission filter 525/54 nm).

B16 cells [2] = experiment: Cell morphology by fluorescence microscopy (phalloidin staining), B16 cells; type: cell-based, mouse; conditions: 24 h
Experimental: as §3, §4

Saccharomyces cerevisiae = type: cell-based; conditions: for sensitivity of sod1Δ and sod2Δ to menadione: 0.1 mM, SC medium; for sensitivity of sod1Δ and sod2Δ to menadione / lysine auxotrophy of sod1Δ cells (growth in SC-Lys medium): 16 h; for lysine auxotrophy of sod1Δ cells (growth in SC-Lys medium): various concentrations; for growth of yeast cells (WT, sod1Δ, sod2Δ): concentrations up to 2 mM
Experimental: The Saccharomyces cerevisiae laboratory strain BY4741 (MATa; his3Δ1; leu2Δ0; met15Δ0; ura3Δ0) considered wild type (WT), and the isogenic strains sod1Δ and sod2Δ lacking the genes SOD1 (encoding Cu/Zn-superoxide dismutase) and SOD2 (encoding Mn-superoxide dismutase) were obtained from EUROSCARF (Frankfurt, Germany). Cells were maintained, manipulated and grown in a rich medium (YPD, 1% w/v yeast extract, 2% w/v peptone, 2% w/v glucose; 2% w/v agar was added for solid media) or on synthetic complete medium (SC, 0.67% w/v yeast nitrogen base without amino acids, 2% w/v glucose) supplemented with the necessary amino acids. Lysine drop-out medium (SC-Lys) was prepared similarly to SC, omitting lysine from the recipe. We added the complexes to autoclaved media from DMSO sterile stocks (10 mM). An overnight culture was 10^3-fold diluted in fresh medium and incubated (200 rpm, 30 °C) until the culture reached a density of 5 × 10^5 cells. The compounds were added to the desired concentrations, and culture growth was monitored at 660 nm in a 96-well multi-scanner plate reader equipped with a thermostat and shaker (Varioskan, Thermo Fischer Scientific, Vantaa, Finland). Three biological replicates were set for all determinations, and data were presented as average ± standard error (SE). The Saccharomyces cerevisiae laboratory strain BY4741 (MATa; his3Δ1; leu2Δ0; met15Δ0; ura3Δ0) considered wild type (WT), and the isogenic strains sod1Δ and sod2Δ lacking the genes SOD1 (encoding Cu/Zn-superoxide dismutase) and SOD2 (encoding Mn-superoxide dismutase) were purchased from EUROSCARF (Frankfurt, Germany). Cells were maintained and manipulated and grown in YPD medium (1% w/v yeast extract, 2% w/v peptone, 2% w/v glucose; 2% w/v agar was added for solid media). Complexes were added to autoclaved media from DMSO sterile stocks (10 mM). To determine the effect of compounds on yeast growth, a fresh overnight pre-culture was 10^3-fold diluted in YPD and incubated (200 rpm, 30 °C) until the culture reached a density of 5 × 10^5 cells/mL. The compounds were added at the desired concentrations, and cell proliferation was monitored at 660 nm in a 96-well multi-scanner auto reader plate reader equipped with a thermostat and shaker (Varioskan Thermo Fischer Scientific, Vantaa, Finland). All determinations were done on three biological replicates.

[3] = 2.5 µg/mL (2.84 μM and 2.76 μM for the complexes)

SMILES | membrane integrity (LDH release) (B16 cells [1]; B16, 24 h and 48 h) | MIC (E. coli 25922) | MIC (P. aeruginosa 27853) | MIC (MRSA 388) | MIC (S. aureus 25923) | morphological changes of BJ cells (BJ cells; 2.5 and 10 µg/mL) | morphological changes of B16 cells (B16 cells [2]; [3]) | sensitivity of sod1Δ and sod2Δ to menadione (Saccharomyces cerevisiae) | lysine auxotrophy of sod1Δ cells (growth in SC-Lys medium) (Saccharomyces cerevisiae) | growth of yeast cells (WT, sod1Δ, sod2Δ) (Saccharomyces cerevisiae) | LDH release (B16 cells [1]; B16, 24 h) | LDH release (B16 cells [1]; B16, 48 h) | morphological changes of BJ cells (BJ cells; 10 μg/mL (11.05 µM)) | morphological changes of B16 cells (B16 cells [2]; 10 μg/mL (11.05 µM))
Cc1cc(C)n2ncnc2n1.Cc1cc(C)n2ncnc2n1.Cc1cc(C)n2ncnc2n1.O.[Cu+2].[O-][Cl+3]([O-])([O-])[O-].[O-][Cl+3]([O-])([O-])[O-].c1ccc(-c2ccccn2)nc1 [Complex (1), [Cu(bpy)(dmtp)2(OH2)](ClO4)2·dmtp] | did not affect the membrane integrity | 710 µM | 710 µM | 350 µM | 180 µM | no effect was observed | not altered | alleviated the sensitivity of sod1Δ and sod2Δ to menadione | improved the growth of sod1Δ mutants | not affected | – | – | – | –
Cc1cc(C)n2ncnc2n1.Cc1cc(C)n2ncnc2n1.Cc1cc(C)n2ncnc2n1.O.[Cu+2].[O-][Cl+3]([O-])([O-])[O-].[O-][Cl+3]([O-])([O-])[O-].c1cnc2c(c1)ccc1cccnc12 [Complex (2), [Cu(phen)(dmtp)2(OH2)](ClO4)2·dmtp] | – | 340 µM | 690 µM | 20 µM | 40 µM | – | not altered | alleviated the sensitivity of sod1Δ and sod2Δ to menadione | improved the growth of sod1Δ mutants | not affected | 60% | 100% | affected the cellular morphology | significant changes
